How the values were obtained:
corn = assay: Test B pre/postemergence corn; type: in vivo, Zea mays
Text: (§1) Seeds of bedstraw (Galium aparine), blackgrass (Alopecurus myosuroides), surinam grass (Brachiaria decumbens), cocklebur (Xanthium strumarium), corn (Zea mays), crabgrass (Digitaria sanguinalis), giant foxtail (Setaria faberii), morningglory (Ipomoea hederacea), pigweed (Amaranthus retroflexus), rape (Brassica napus), soybean (Glycine max), sugar beet (Beta vulgaris), velvetleaf (Abutilon theophrasti), wheat (Triticum aestivum), wild oat (Avena fatua) and purple nutsedge (Cyperus rotundus) tubers were planted and treated preemnergence with test chemicals formulated in a non-phytotoxic solvent mixture which included a surfactant.
(§2) At the same time, these crop and weed species were also treated with postemergence applications of test chemicals formulated in the same manner. Plants ranged in height from 2 to 18 cm (1- to 4-leaf stage) for postemergence treatments. Plant species in the flood test consisted of rice (Oryza sativa), smallflower flatsedge (Cyperus difformis), duck salad (Heteranthera limosa) and bamyardgrass (Echinochloa crus-galli) grown to the 2-leaf stage for testing. Treated plants and controls were maintained in a greenhouse for twelve to sixteen days, after which all species were compared to controls and visually evaluated. Plant response ratings, summarized in Table B, are based on a scale of 0 to 10 where 0 is no effect and 10 is complete control. A dash (−) response means no test result.

morningglory = assay: Test B pre/postemergence morningglory; type: in vivo, Ipomoea hederacea
Method in brief: (§3)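 Response is a visual 0-to-10 score relative to untreated plants, where 0 means no effect and 10 means complete control, taken twelve to sixteen days after application. Treatments went onto soil at planting and onto foliage of 1- to 4-leaf plants, using a surfactant-containing non-phytotoxic solvent.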

surinam grass = assay: Test B pre/postemergence surinam grass; type: in vivo, Brachiaria decumbens
Text: as §1, §2

velvetleaf = assay: Test B pre/postemergence velvetleaf; type: in vivo, Abutilon theophrasti; conditions: for Plant response rating, Velvetleaf: Rate 250 g/ha
Text: as §1, §2

crabgrass = assay: Test B pre/postemergence crabgrass; type: in vivo, Digitaria sanguinalis
Text: as §1, §2

soybean = assay: Test B pre/postemergence soybean; type: in vivo, Glycine max
Text: as §1, §2

purple nutsedge = assay: Test B pre/postemergence purple nutsedge; type: in vivo, Cyperus rotundus
Method in brief: as §3

cocklebur = assay: Test B pre/postemergence cocklebur; type: in vivo, Xanthium strumarium
Text: as §1, §2

blackgrass = assay: Test B pre/postemergence blackgrass; type: in vivo, Alopecurus myosuroides
Text: as §1, §2

wild oat = assay: Test B pre/postemergence wild oat; type: in vivo, Avena fatua; conditions: for Plant response rating, Wild oats: Rate 250 g/ha
Text: as §1, §2

wheat = assay: Test B pre/postemergence wheat; type: in vivo, Triticum aestivum; conditions: for Plant response rating, Wheat: Rate 250 g/ha
Method in brief: as §3

pigweed = assay: Test B pre/postemergence pigweed; type: in vivo, Amaranthus retroflexus
Text: as §1, §2

sugar beet = assay: Test B pre/postemergence sugar beet; type: in vivo, Beta vulgaris; conditions: for Plant response rating, Sugarbeets: Rate 250 g/ha
Text: as §1, §2

bedstraw = assay: Test B pre/postemergence bedstraw; type: in vivo, Galium aparine
Method in brief: as §3

rape = assay: Test B pre/postemergence rape; type: in vivo, Brassica napus
Text: as §1, §2

giant foxtail = assay: Test B pre/postemergence giant foxtail; type: in vivo, Setaria faberii
Text: as §1, §2

[1] = Postemergence, Rate 125 g/ha, scale of 0 to 10 where 0 is no effect and 10 is complete control
[2] = Postemergence, Rate 250 g/ha, scale 0 to 10, 0 no effect, 10 complete control
[3] = Preemergence, Rate 62 g/ha, scale 0 to 10 (0 no effect, 10 complete control)
[4] = Preemergence, Rate 125 g/ha, scale 0 to 10 (0 no effect, 10 complete control)
[5] = Preemergence, Rate 250 g/ha, scale of 0 to 10 where 0 is no effect and 10 is complete control
[6] = Preemergence, Rate 500 g/ha, scale 0 to 10 (0 no effect, 10 complete control)
[7] = Rate 62 g/ha, Postemergence, scale of 0 to 10 where 0 is no effect and 10 is complete control
[8] = Rate 500 g/ha, Postemergence, scale 0 to 10, 0 no effect, 10 complete control
[9] = Preemergence, Rate 125 g/ha, 0 is no effect, 10 is complete control
[10] = Preemergence, scale of 0 to 10 where 0 is no effect and 10 is complete control
[11] = Postemergence, scale 0 to 10, 0 is no effect, 10 is complete control
[12] = Rate 250 g/ha, Postemergence, scale 0 to 10, 0 is no effect, 10 is complete control

SMILES: COc1ccccc1Cn1c(=O)on(C(=O)N(c2ccccc2)C(C)C)c1=O [Compound 104]
- Corn plant response rating (corn; [1]): 0
- Corn plant response rating (corn; [2]): 0
- Corn plant response rating (corn; [3]): 0
- Plant response rating, Corn (corn; [4]): 0
- Plant response rating, Corn (corn; [5]): 0
- Corn plant response rating (corn; [6]): 2
- Corn plant response rating (corn; [7]): 0
- Corn plant response rating (corn; [8]): 0
- Morningglory plant response rating (morningglory; [1]): 10
- Morningglory plant response rating (morningglory; [2]): 10
- Morningglory plant response rating (morningglory; [3]): 0
- Plant response rating, Morningglory (morningglory; [4]): 0
- Plant response rating, Morningglory (morningglory; [5]): 0
- Morningglory plant response rating (morningglory; [6]): 0
- Morningglory plant response rating (morningglory; [7]): 10
- Morningglory plant response rating (morningglory; [8]): 10
- B. signalgrass plant response rating (surinam grass; Postemergence, Rate 62 g/ha, scale 0 to 10, 0 is no effect, 10 is complete control): 0
- B. signalgrass plant response rating (surinam grass; [2]): 0
- B. signalgrass plant response rating (surinam grass; [3]): 0
- Plant response rating, B. signalgrass (surinam grass; [4]): 0
- Plant response rating, B. signalgrass (surinam grass; [5]): 5
- B. signalgrass plant response rating (surinam grass; [6]): 6
- B. signalgrass plant response rating (surinam grass; Rate 125 g/ha, Postemergence, scale 0 to 10, 0 no effect, 10 complete control): 0
- B. signalgrass plant response rating (surinam grass; Rate 500 g/ha, Postemergence, scale of 0 to 10 where 0 is no effect and 10 is complete control): 0
- Velvetleaf plant response rating (velvetleaf; [1]): 0
- Velvetleaf plant response rating (velvetleaf; [3]): 0
- Velvetleaf plant response rating (0 to 10 scale) (velvetleaf; [9]): 0
- Plant response rating, Velvetleaf (velvetleaf; [10]): 0
- Velvetleaf plant response rating (velvetleaf; [6]): 0
- Velvetleaf plant response rating (velvetleaf; [7]): 0
- Plant response rating, Velvetleaf (velvetleaf; [11]): 3
- Velvetleaf plant response rating (velvetleaf; [8]): 3
- Crabgrass plant response rating (crabgrass; [1]): 4
- Crabgrass plant response rating (crabgrass; [2]): 5
- Crabgrass plant response rating (crabgrass; [3]): 0
- Plant response rating, Crabgrass (crabgrass; [4]): 0
- Plant response rating, Crabgrass (crabgrass; [5]): 1
- Crabgrass plant response rating (crabgrass; [6]): 9
- Crabgrass plant response rating (crabgrass; [7]): 0
- Crabgrass plant response rating (crabgrass; [8]): 8
- Soybean plant response rating (soybean; [1]): 5
- Soybean plant response rating (soybean; [3]): 0
- Plant response rating, Soybean (soybean; [4]): 0
- Plant response rating, Soybean (soybean; [5]): 0
- Soybean plant response rating (soybean; [6]): 0
- Soybean plant response rating (soybean; [7]): 4
- Plant response rating, Soybean (soybean; [12]): 5
- Soybean plant response rating (soybean; [8]): 5
- Nutsedge plant response rating (purple nutsedge; [1]): 0
- Nutsedge plant response rating (purple nutsedge; [2]): 0
- Nutsedge plant response rating (purple nutsedge; [3]): 0
- Plant response rating, Nutsedge (purple nutsedge; [4]): 0
- Plant response rating, Nutsedge (purple nutsedge; [5]): 0
- Nutsedge plant response rating (purple nutsedge; [6]): 0
- Nutsedge plant response rating (purple nutsedge; [7]): 0
- Nutsedge plant response rating (purple nutsedge; [8]): 0
- Cocklebur plant response rating (cocklebur; [1]): 0
- Cocklebur plant response rating (cocklebur; [2]): 2
- Plant response rating, Cocklebur (cocklebur; [4]): 0
- Plant response rating, Cocklebur (cocklebur; [5]): 0
- Cocklebur plant response rating (cocklebur; [6]): 0
- Cocklebur plant response rating (cocklebur; [7]): 0
- Cocklebur plant response rating (cocklebur; [8]): 3
- Blackgrass plant response rating (blackgrass; [1]): 0
- Blackgrass plant response rating (blackgrass; [2]): 5
- Blackgrass plant response rating (blackgrass; [3]): 0
- Plant response rating, Blackgrass (blackgrass; [4]): 3
- Plant response rating, Blackgrass (blackgrass; [5]): 6
- Blackgrass plant response rating (blackgrass; [6]): 7
- Blackgrass plant response rating (blackgrass; [7]): 0
- Blackgrass plant response rating (blackgrass; [8]): 6
- Wild oats plant response rating (wild oat; [1]): 0
- Wild oats plant response rating (wild oat; [3]): 0
- Wild oats plant response rating (0 to 10 scale) (wild oat; [9]): 2
- Plant response rating, Wild oats (wild oat; [10]): 4
- Wild oats plant response rating (wild oat; [6]): 7
- Wild oats plant response rating (wild oat; [7]): 0
- Plant response rating, Wild oats (wild oat; [11]): 0
- Wild oats plant response rating (wild oat; [8]): 2
- Wheat plant response rating (wheat; [1]): 0
- Wheat plant response rating (wheat; [3]): 0
- Wheat plant response rating (0 to 10 scale) (wheat; [9]): 0
- Plant response rating, Wheat (wheat; [10]): 0
- Wheat plant response rating (wheat; [6]): 4
- Wheat plant response rating (wheat; [7]): 0
- Plant response rating, Wheat (wheat; [11]): 0
- Wheat plant response rating (wheat; [8]): 0
- Redroot pigweed plant response rating (pigweed; [1]): 3
- Redroot pigweed plant response rating (pigweed; [3]): 0
- Plant response rating, Redroot pigweed (pigweed; [4]): 0
- Plant response rating, Redroot pigweed (pigweed; [5]): 0
- Redroot pigweed plant response rating (pigweed; [6]): 4
- Redroot pigweed plant response rating (pigweed; [7]): 1
- Plant response rating, Redroot pigweed (pigweed; [12]): 3
- Redroot pigweed plant response rating (pigweed; [8]): 7
- Sugarbeets plant response rating (sugar beet; [1]): 1
- Sugarbeets plant response rating (sugar beet; [3]): 0
- Sugarbeets plant response rating (0 to 10 scale) (sugar beet; [9]): 0
- Plant response rating, Sugarbeets (sugar beet; [10]): 1
- Sugarbeets plant response rating (sugar beet; [6]): 6
- Sugarbeets plant response rating (sugar beet; [7]): 0
- Plant response rating, Sugarbeets (sugar beet; [11]): 1
- Sugarbeets plant response rating (sugar beet; [8]): 3
- Bedstraw plant response rating (bedstraw; [3]): 0
- Plant response rating, Bedstraw (bedstraw; [4]): 0
- Plant response rating, Bedstraw (bedstraw; [5]): 0
- Bedstraw plant response rating (bedstraw; [6]): 0
- Bedstraw plant response rating (bedstraw; [8]): 6
- Rape plant response rating (rape; [1]): 0
- Rape plant response rating (rape; [2]): 0
- Rape plant response rating (rape; [3]): 0
- Plant response rating, Rape (rape; [4]): 0
- Plant response rating, Rape (rape; [5]): 0
- Rape plant response rating (rape; [6]): 0
- Rape plant response rating (rape; [7]): 0
- Rape plant response rating (rape; [8]): 2
- Giant foxtail plant response rating (giant foxtail; [1]): 3
- Giant foxtail plant response rating (giant foxtail; [2]): 4
- Giant foxtail plant response rating (giant foxtail; [3]): 0
- Plant response rating, Giant foxtail (giant foxtail; [4]): 4
- Plant response rating, Giant foxtail (giant foxtail; [5]): 10
- Giant foxtail plant response rating (giant foxtail; [6]): 10
- Giant foxtail plant response rating (giant foxtail; [7]): 3
- Giant foxtail plant response rating (giant foxtail; [8]): 8

Reference: patent US6737383B1, “Herbicidal oxadiazolidines” (priority 1999, dated 2004)
